Values quoted from earlier work as cited in US10507185B2, “Composite structural material and pharmaceutical composition thereof” (INNOVACO PHARMACEUTICALS, INC, priority 2013, dated 2019).

CC(C)n1c(/C=C/C(O)CC(O)CC(=O)O)c(-c2ccc(F)cc2)c2ccccc21 (stereo not shown) [Fluvastatin, fluvastatin]
pKa value: 4.6
